The text below walks through data of patent US7968595B2, “Substituted 4-aryl-chromene as activator of caspases and inducer of apoptosis and as antivascular agent and the use thereof” (Cytovia, Inc., priority 2006, dated 2011).

Assay [1] has as its system T-47D. The assay is described as follows: Caspase activation assay in T-47D cells. It counts as cell-based. The following applies: Homo sapiens; T47D cells, 24 h incubation; read-out: Caspase activation potency EC50 T47D. The procedure:
(§1) Human breast cancer cell lines T-47D and ZR-75-1, human colon cancer cell line DLD-1 and human non-small cell lung cancer cell line H1299 were grown according to media component mixtures designated by American Type Culture Collection+10% FCS (Invitrogen Corporation), in a 5% CO2−95% humidity incubator at 37° C. T-47D and ZR-75-1 cells were maintained at a cell density between 30 and 80% confluency at a cell density of 0.1 to 0.6×10^6 cells/mL. Cells were harvested at 600×g and resuspended at 0.65×10^6 cells/mL into appropriate media+10% FCS. An aliquot of […] of cells was added to a well of a 96-well microtiter plate containing 5 μl of a 10% DMSO in RPMI-1640 media solution containing about 0.16 to 10 μM of 2,7,8-triamino-4-(3-bromo-4,5-dimethoxy-phenyl)-3-cyano-4H-chromene (1) or other test compounds (0.016 to 1 μM final). An aliquot of 45 μl of cells was added to a well of a 96-well microtiter plate containing 5 μl of a 10% DMSO in RPMI-1640 media solution without test compound as the control sample. The samples were mixed by agitation and then incubated at 37° C. for 24 h in a 5% CO2−95% humidity incubator. After incubation, the samples were removed from the incubator and 50 μl of a solution containing 20 μM of N-(Ac-DEVD)-N′-ethoxycarbonyl-R110 (SEQ ID No:1) fluorogenic substrate (Cytovia, Inc.; U.S. Pat. No. 6,335,429), 20% sucrose (Sigma), 20 mM DTT (Sigma), 200 mM NaCl (Sigma), 40 mM Na PIPES buffer pH 7.2 (Sigma), and 500 μg/ml lysolecithin (Calbiochem) was added. The samples were mixed by agitation and incubated at room temperature. Using a fluorescent plate reader (Model 1420 Wallac Instruments), an initial reading (T=0) was made about 1-2 min after addition of the substrate solution, employing excitation at 485 nm and emission at 530 nm, to determine the background fluorescence of the control sample. After the 3 h incubation, the samples were read for fluorescence as above (T=3 h).
(§2) The Relative Fluorescence Unit values (RFU) were used to calculate the sample readings as follows: RFU(T=3h)−Control RFU(T=0)=Net RFU(T=3h)
(§3) The activity of caspase cascade activation was determined by the ratio of the net RFU value for 2,7,8-triamino-4-(3-bromo-4,5-dimethoxy-phenyl)-3-cyano-4H-chromene or other test compound to that of control samples. The EC50 (nM) was determined by a sigmoidal dose-response calculation (Prism 2.0, GraphPad Software Inc.).

Assay [2] has as its system MX1 human breast cancer tumors. Nature of the assay: In vivo antitumor activity in MX-1 model, combination with cisplatin and doxorubicin. More on the design: species or system mice. The procedure:
MX1 human breast cancer tumors were obtained from the NCI-FCRDC and maintained as tumors in nude mice. Tumor bits were implanted with a trocar into the right mammary area of female nu/nu mice and allowed to grow to an average size of 200-250 mg, about 12 days after being implanted. Animals were randomized and assigned to study groups of 8-10 animals/group. Body weight were determined and tumor size were measured by calipers and converted to volume by the standard formula of Vol=L×W^2/2. Compound 1R was formulated in 7% PEG400/9% Tween80/84% D5W and administered IV via the tail vein at the indicated days and doses. Day 1 of the study was the first day of treatment. Survival time was the number of days for the tumor to reach 1000 mg or death, whichever occurred earliest. Median survival is the median for the group.
Mice implanted with MX1 human breast cancer tumors were treated with compound 1R as described in EXAMPLE 11. Cisplatin was administered IP whereas doxorubicin was administered IV at the indicated doses.

For assay [3], the system named is H1299. The assay is described as follows: Caspase activation assay in H1299 cells. The following applies: Homo sapiens, NCI-H1299, 24 h incubation, read-out: Caspase activation potency EC50 H1299. It counts as cell-based. On the procedure: as §1, §2, §3
For assay [4], the system named is ZR-75-1. The assay is described as follows: Caspase activation assay in ZR-75-1 cells. Type of assay: cell-based. The following applies: Homo sapiens, ZR751 cells, 24 h incubation, read-out: Caspase activation potency EC50 ZR751. The procedure: as §1, with “After incubation, the samples were removed from the incubator and 50 μl of a solution containing 20 μM of N-(Ac-DEVD)-N′-ethoxycarbonyl-R110 (SEQ ID No:1) fluorogenic substrate (Cytovia, Inc.; U.S. Pat. No. 6,335,429), 20% sucrose (Sigma), 20 mM DTT (Sigma), 200 mM NaCl (Sigma), 40 mM Na PIPES buffer pH 7.2 (Sigma), and 500 μg/ml lysolecithin (Calbiochem) was added. The samples were mixed by agitation and incubated at room temperature.” left out
as §2, §3

For assay [5], the system named is DLD-1. The assay is described as follows: Caspase activation assay in DLD-1 cells. The following applies: Homo sapiens, 24 h incubation, read-out: Caspase activation potency EC50 DLD-1. Type of assay: cell-based. The procedure:
as §1, with “After incubation, the samples were removed from the incubator and 50 μl of a solution containing 20 μM of N-(Ac-DEVD)-N′-ethoxycarbonyl-R110 (SEQ ID No:1) fluorogenic substrate (Cytovia, Inc.; U.S. Pat. No. 6,335,429), 20% sucrose (Sigma), 20 mM DTT (Sigma), 200 mM NaCl (Sigma), 40 mM Na PIPES buffer pH 7.2 (Sigma), and 500 μg/ml lysolecithin (Calbiochem) was added. The samples were mixed by agitation and incubated at room temperature.” left out
as §2, §3

The subject of assay [6] is solid tumor cells. The assay is described as follows: Caspase cascade activation and induction of apoptosis, overall statement. The following applies: summary of Table I. It counts as cell-based, human. On the procedure:
as §1, with “After incubation, the samples were removed from the incubator and 50 μl of a solution containing 20 μM of N-(Ac-DEVD)-N′-ethoxycarbonyl-R110 (SEQ ID No:1) fluorogenic substrate (Cytovia, Inc.; U.S. Pat. No. 6,335,429), 20% sucrose (Sigma), 20 mM DTT (Sigma), 200 mM NaCl (Sigma), 40 mM Na PIPES buffer pH 7.2 (Sigma), and 500 μg/ml lysolecithin (Calbiochem) was added. The samples were mixed by agitation and incubated at room temperature.” left out
as §3

The mark [7] stands for this setting: cisplatin 2 mg/kg, day 2, 9, IP.
The mark [8] stands for this setting: doxorubicin 2 mg/kg, day 2, 9, IV.

For orientation: EC50 means the concentration giving half of the maximal effect. Take `COc1cc([C@H]2C(C#N)=C(N)Oc3c2ccc(NC(=O)[C@H](C)NC(=O)OCC2c4ccccc4-c4ccccc42)c3N)cc(Br)c1OC` [Compound 3, (9H-fluoren-9-yl)methyl(S)-1-((R)-2,8-diamino-3-cyano-4-(3-bromo-4,5-dimethoxyphenyl)-4H-chromen-7-ylcarbamoyl)ethylcarbamate]: the EC50 in assay [1] turned out to be 2880 nM.
Regarding `N.N.[Cl][Pt][Cl]` [Cisplatin, reference compound], in assay [2] (setting [7]), the Median survival is 27 days and the “Number of tumor free mice at day 91” value is recorded as 1 of 7. Further, in assay [2] (cisplatin 2 mg/kg, day 2, IP), the Median survival stood at 11 days and the “Number of tumor free mice at day 91” value was 0 of 9.
For `COc1cc(C2C(C#N)=C(N)Oc3c2ccc(NC(=O)C2CCCN2)c3N)cc(Br)c1OC` (stereo not shown) [Compound E], the results for the EC50 in assay [1] and in assay [3] were 3900 nM and 5330 nM, respectively.
In the same order, the values of `COc1cc(C2C(C#N)=C(N)Oc3c2ccc(NC(=O)C(N)COC(C)=O)c3N)cc(Br)c1OC` (stereo not shown) [F] are 4120 nM and 5670 nM.
For `COc1cc([C@H]2C(C#N)=C(N)Oc3c2ccc(NC(=O)CNC(=O)OCC2c4ccccc4-c4ccccc42)c3N)cc(Br)c1OC` [Compound 5, (9H-fluoren-9-yl)methyl((R)-2,8-diamino-4-(3-bromo-4,5-dimethoxyphenyl)-3-cyano-4H-chromen-7-ylcarbamoyl)methylcarbamate], the EC50 in assay [1] came out at 2440 nM.
As to `COc1cc(C2C(C#N)=C(N)Oc3c2ccc(NC(=O)CN(C)C)c3N)cc(Br)c1OC` (stereo not shown) [A], the results for the concentration for a half-maximal effect (EC50) in assay [1] and in assay [3] were 2540 nM and 3340 nM, respectively.
In the case of `COc1cc(C2C(C#N)=C(N)Oc3c2ccc(N)c3N)cc(Br)c1OC` (racemic) [Compound 1, 2,7,8-Triamino-4-(3-bromo-4,5-dimethoxy-phenyl)-3-cyano-4H-chromene], the EC50 in assay [4] was 35 nM; in assay [1], 42 nM; in assay [5] it was 78 nM; in assay [3] it was 120 nM.
As for `COc1cc([C@H]2C(C#N)=C(N)Oc3c2ccc(NC(=O)CN)c3N)cc(Br)c1OC` [Compound 6, 2-Amino-N—((R)-2,8-diamino-4-(3-bromo-4,5-dimethoxyphenyl)-3-cyano-4H-chromen-7-yl)acetamide], in assay [1], the EC50 was determined as 60 nM.
As for `COc1cc(C2C(C#N)=C(N)Oc3c2ccc(NC(=O)C[N+](C)(C)C)c3N)cc(Br)c1OC` (stereo not shown) [D], the EC50 in assay [1] and in assay [3] was above 10000 nM each time.
In the case of `COc1cc([C@@H]2C(C#N)=C(N)Oc3c2ccc(N)c3N)cc(Br)c1OC` [Compound 1S, S(+)-2,7,8-triamino-4-(3-bromo-4,5-dimethoxy-phenyl)-3-cyano-4H-chromene], the “Caspase cascade activator and inducer of apoptosis (in words)” value in assay [6] is “inactive isomer”. In addition, the EC50 came to 2010 nM in assay [4], 2490 nM in assay [1], 4570 nM in assay [5] and 3210 nM in assay [3].
As for `COc1cc(C2C(C#N)=C(N)Oc3c2ccc(NC(=O)CN)c3N)cc(Br)c1OC` (stereo not shown) [C], the EC50 in assay [1] came out at 160 nM; in assay [3], 273 nM.
`COc1cccc2c1C(=O)c1c(O)c3c(c(O)c1C2=O)C[C@@](O)(C(=O)CO)C[C@@H]3O[C@H]1C[C@H](N)[C@H](O)[C@H](C)O1` [Doxorubicin, reference compound]: in assay [2] (setting [8]), the Median survival is 11 days and the “Number of tumor free mice at day 91” value is 0 of 9.
Turning to `COc1cc([C@H]2C(C#N)=C(N)Oc3c2ccc(NC(=O)[C@H](C)N)c3N)cc(Br)c1OC` [Compound 4, (2S)-2-Amino-N—((R)-2,8-diamino-4-(3-bromo-4,5-dimethoxyphenyl)-3-cyano-4H-chromen-7-yl)propanamide], in assay [6], the “Caspase cascade activator and inducer of apoptosis (in words)” value was “potent caspase cascade activator and inducer of apoptosis”. For the same compound, in assay [1], the EC50 stood at 52 nM.
`COc1cc(C2C(C#N)=C(N)Oc3c2ccc(NC(=O)CCCN)c3N)cc(Br)c1OC` (stereo not shown) [B]: the concentration for a half-maximal effect (EC50) came out at 5500 nM in assay [1] and 5780 nM in assay [3].
For `COc1cc(C2C(C#N)=C(N)Oc3c2ccc(NC(=O)[C@H](N)CCCCN)c3N)cc(Br)c1OC` (stereo partly shown) [G], the EC50 in assay [1] amounted to 1420 nM; in assay [3] it was 3750 nM.
